From patent US11497733B2, “Combination therapy of HSP90 inhibitors and PD-1 inhibitors for treating cancer” (Synta Pharmaceuticals Corp., priority 2015, dated 2022) come the findings set out here.

“Also recorded” adds a separate entry of the source.

In experiment [1] the test system is MC38 colon carcinoma tumors. Description: MC38 colon carcinoma syngeneic mouse tumor model, tumor growth. The format is in vivo, C57 BL/6 mice. Particulars: established MC38 tumors; ganetespib 125 mg/kg days 8 and 15; αPD-L1 200 μg days 8, 12, 15; FIG. 1A. How it is done: Such findings support the premise that targeting HSP90 may represent a complementary and therapeutically advantageous approach together with immune checkpoint blockade for augmenting antitumor immune responses.
The HSP90 inhibitor ganetespib potentiates the antitumor efficacy of PD-L1 antibody treatment in syngeneic mouse tumor models. In FIG. 1 (a), C57 BL/6 mice bearing established MC38 colon carcinoma tumors (n=7/group) were treated with 200 μg IgG1 control or anti-PD-L1 antibody (αPD-L1; Sorrento Therapeutics, Inc., San Diego), either alone or in combination with 125 mg/kg ganetespib. Ganetespib was dosed on a weekly schedule (days 8 and 15), αPD-L1 was administered on days 8, 12, and 15. […] In FIG. 1 (b), C57 BL/6 mice bearing established B16 melanoma tumors (n=3/group) were dosed using a similar regimen as in (a).

The subject of a further experiment is MC38 tumors. In words: Gene expression array (NanoString) of MC38 tumors after a ganetespib dose. The format is in vivo, mice. As for the experimental part: Mice with MC38 tumors received a dose of ganetespib. Tumors (3 per time point) were removed from the animals at 4, 24, 48 and 120 hr post dose. RNA was prepared and analyzed for gene expression using NanoString. Expression levels of genes were made by comparing drug treated tumors with vehicle-treated tumors.

The test system of the next experiment is HCC827 cells. In words: MHC Class I surface expression on HCC827 cells, flow cytometry. Format: cell-based. As to conditions: overnight incubation, FIG. 7A. How it is done:
HCC827 cells were incubated with DMSO, Interferon gamma (IFNγ) or ganetespib and stained with anti MHC Class 1 antibodies and examined by flow cytometry to determine the number of molecules per cell surface.
On the technique in general: Flow cytometry measures light scatter and fluorescence of single cells or particles in a stream.

Another experiment deals with MC38 cells. In words: MHC Class I (H2-K) surface expression on MC38 cells, flow cytometry. The format is cell-based, mouse. Particulars: overnight, 100 nM ganetespib (sublethal), FIG. 7B. How it is done:
MC38 cells were incubated overnight with media+0.01% DMSO (dashed red line, light blue line), or media with 100 nM ganetespib (dotted red line, dark blue line). Cells were stained with an isotype control (red lines), or antibody to mouse H2-K (blue lines).

The test system of another experiment is MC38 tumor cells. Description: Chemokine production by MC38 tumor cells in vitro. Format: cell-based, mouse. Particulars: overnight, sublethal ganetespib with 300 U/ml TNFα, FIG. 8. How it is done: (§1) MC38 or CT26 tumor cells were incubated with the indicated concentrations of ganetespib as shown in FIG. 8 in combination with 300 U/ml TNFα overnight and supernatants were collected and assayed for chemokines.

The subject of another experiment is CT26 tumor cells. In words: Chemokine production by CT26 tumor cells in vitro. The format is cell-based. Particulars: overnight, sublethal ganetespib with 300 U/ml TNFα, FIG. 8. How it is done: as §1
[2] abbreviates: within 48-120 hr after in vivo treatment, versus vehicle-treated tumors.

For the molecule `CC(C)c1cc(-c2nnc(O)n2-c2ccc3c(ccn3C)c2)c(O)cc1O` [ganetespib, 3-(2,4-DIHYDROXY-5- ISOPROPYL-PHENYL)-4-(1- METHYL-INDOL-5-YL)-5- HYDROXY-[1,2,4] TRIAZOLE (GANETESPIB)], in experiment [1], the “tumor growth suppression / antitumor efficacy” value is listed as “comparable degree of tumor growth suppression to that seen following selective anti-PD-L1 antibody treatment”. In the experiment on MC38 tumors (after a single ganetespib administration, FIG. 6), the “influx of immune cells into tumors (gene expression)” value is “influx of T cells, B cells and NK cells into tumors”. The “chemokines in tumor (gene expression)” value in the experiment on MC38 tumors (after in vivo treatment, versus vehicle-treated tumors) is reported as “Increases in a large number of chemokines”. Besides, the “NK cells and CD8 cells in tumor (gene expression)” value in the experiment with MC38 tumors (setting [2]) is “increased numbers of NK cells and CD8 cells”. Moreover, in the experiment with MC38 tumors (setting [2]), the “Treg cells in tumor (gene expression)” value is “decreased Treg cells”. Also, the “number of HLA-ABC molecules/cell” value in the experiment on HCC827 cells is recorded as “doubled”. The “major histocompatibility antigen (MHC Class I, H2-K) expression” value with MC38 cells is recorded as “upregulates major histocompatibility antigens, especially MHC Class I”. For the same molecule, the “chemokine production (CCL2, CCL5, CXCL10)” value with MC38 tumor cells is “induces chemokine production; also recorded: provokes production of chemokines by the tumor cells (CCL2, CCL5, CXCL10)”; with CT26 tumor cells it was “induces chemokine production; also recorded: provokes production of chemokines by the tumor cells (CCL2, CCL5, CXCL10)”.
